Experimental data as given in patent US20040087553A1, “Hypoestoxides, derivatives and agonists thereof for use in the treatment and prophylaxis of hyperlipidemia” (Paraquest, Inc., priority 2002, published 2004).

Assay: Effect of oral hypoestoxide on blood cholesterol and triglyceride levels in a beagle dog (standard colorimetric method on sera)
Format: in vivo
Details: 30 mg/kg oral once daily for seven days; for Triglycerides / Cholesterol: dog serum; for Triglycerides: day −1 value 300; for Cholesterol: day −1 value 308
Protocol: In one example, hypoestoxide was administered orally to a 2-year-old female beagle dog at a dose of 30 mg/kg, once daily for seven days. Blood cholesterol and triglyceride levels were determined in sera obtained at days 1, 3, 7 and 14, respectively. Assays were performed by a standard colorimetric method by a commercial laboratory (Antech Diagnostics, Irvine, Calif.).

C=C1C(=O)C[C@H]2C[C@@H]3O[C@@]3(C)CC[C@@H]3O[C@@]3(C)C[C@@H](OC(C)=O)[C@H]1C2(C)C [hypoestoxide]
blood cholesterol and triglyceride levels (effect in words) (beagle dog): significantly lowered | Triglycerides (day 1, normal reference range 29-291): 296 mg/dL | Cholesterol (day 1, normal reference range 92-324): 122 mg/dL | Triglycerides (day 3): 70 mg/dL | Cholesterol (day 3): 130 mg/dL | Triglycerides (day 7): 33 mg/dL | Cholesterol (day 7): 124 mg/dL | Triglycerides (day 14): 51 mg/dL | Cholesterol (day 14): 134 mg/dL
